The term IC50 denotes the concentration needed to halve the response being measured.

Where a name gives a salt, the structure may show the parent alone.

In the first assay the test system is IL-1β production in THP-1 cells (LPS and ATP; NLRP3 inflammasome activation). Nature of the assay: THP-1 IL-1β production inhibitory test. The assay is classed as cell-based, human. Particulars: Homo sapiens, THP-1, 2 h, PMA-differentiated THP-1 cells, LPS 50 ng/mL and ATP 5 mM, 2 hours, ELISA; read-out: IC50 (nM), IL-1β production. Here is the method:
THP-1 IL-1β Production Inhibitory Test
To THP-1 cells, 50 ng/mL PMA (phorbol myristate acetate, SIGMA, P1585) was added at 37° C. and then the cells were cultured for 2 days. […] The cells were cultured at 37° C. for 15 minutes. LPS (lipopolysaccharide, SIMGA, L2880) and ATP (adenosine triphosphate, SIGMA, A2383) were added such that the final concentrations of them became 50 ng/mL and 5 mM, respectively. The cells were cultured at 37° C. for 2 hours. The supernatant was collected and the concentration of IL-1β was measured by ELISA (DuoSet ELISA human IL-1β, R&D Systems, DY201). The concentration of IL-1β was plotted against the logarithm of the concentration of the test compound, and the IC50 value was calculated by sigmoidal Emax model nonlinear regression analysis.
Background: ELISA stands for enzyme-linked immunosorbent assay.
Consider `Cc1ccc(-c2nnc(N[C@H]3C[C@@](C)(O)C3)nc2C2CC2)c(O)c1` [Example 119], for which the 50% inhibitory concentration (IC50) came out at 42 nM. The same measure, in the same setting: the value for `Cc1nc(N[C@H]2CCCC[C@@H]2O)nnc1-c1ccc(C(F)(F)F)cc1O` [Example 41] was 310 nM. With `Cc1nc(N[C@@H]2CCCN(C3COC3)C2)nnc1-c1ccc(C(F)(F)F)cc1O` [Example 179], the half-inhibitory concentration (IC50) came out at 19 nM. For the compound `Cc1nc(N[C@H]2CC[C@H](O)CC2)nnc1-c1ccc(C(F)(F)F)cc1O` [Example 26], the concentration for half-maximal inhibition (IC50) came to 62 nM. As to `Cc1nc(N[C@@H]2CN(S(C)(=O)=O)C[C@H]2O)nnc1-c1ccc(C(F)(F)F)cc1O` [Example 160, (3R,4R)-4-({6-[2-hydroxy-4-(trifluoromethyl)phenyl]-5-methyl-1,2,4-triazin-3-yl}amino)-1-(methanesulfonyl)pyrrolidin-3-ol], the IC50 turned out to be 210 nM.

On to `Cc1nc(N[C@@H]2CC[C@H](C#N)C2)nnc1-c1ccc(C(F)(F)F)cc1O` [Example 102], for which the IC50 was 11 nM. As for `Cc1nc(N[C@@H]2CCC[C@H](O)C2)nnc1-c1cc(F)c(C(F)(F)F)cc1O` [Example 176], the half-inhibitory concentration (IC50) turned out to be 43 nM.

With `Cc1nc(NC2CCC(C(N)=O)NC2)nnc1-c1ccc(C(F)(F)F)cc1O` (centres unmarked) [Example 173], the 50% inhibitory concentration (IC50) is 58 nM.

Regarding `Cc1nc(NC[C@H]2C[C@H](N)C2)nnc1-c1ccc(C(F)(F)F)cc1O` [Example 143], the concentration for half-maximal inhibition (IC50) was determined as 220 nM. `Cc1nc(N[C@@H]2CCCC[C@@]2(C)O)nnc1-c1ccc(Cl)cc1O` [Example 54]: the IC50 came to 7.3 nM. As to `Cc1nc(NCC(C)(C)O)nnc1-c1ccc(C(F)(F)F)cc1O` [Example 85], the IC50 is 57 nM. As to `Cc1nc(NC[C@@H]2CCCNC2)nnc1-c1ccc(C(F)(F)F)cc1O` [Example 135], the half-inhibitory concentration (IC50) was 450 nM. `Cc1nc(NCCN2CCOCC2)nnc1-c1ccc(C(F)(F)F)cc1O` [Example 95]: the IC50 was 410 nM.

For `Cc1nc(NC[C@H]2C[C@@H](N)C2)nnc1-c1ccc(C(F)(F)F)cc1O` [Example 144], the 50% inhibitory concentration (IC50) was 160 nM. Consider `CC(=O)N1CCC[C@@H](Nc2nnc(-c3ccc(C(F)(F)F)cc3O)c(C)n2)C1` [Example 154], for which the IC50 was found to be 31 nM. For `Cc1nc(NC23CC(CO)(C2)C3)nnc1-c1ccc(C(F)(F)F)cc1O` [Example 38], the IC50 stood at 11 nM. In the case of `C[C@@]1(O)CCCC[C@H]1Nc1nnc(-c2ccc(Cl)cc2O)c(C2CC2)n1` [Example 123], the IC50 was 54 nM.

On to `Cc1nc(N[C@@H]2C[C@H]3C[C@@H]2[C@@H](O)C3)nnc1-c1ccc(C(F)(F)F)cc1O` [Example 39], for which the IC50 worked out at 19 nM. Regarding `Cc1nc(NCC(F)F)nnc1-c1ccc(C(F)(F)F)cc1O` [Example 87], the concentration for half-maximal inhibition (IC50) is 130 nM.

As for `Cc1nc(NCC2(CO)CCC2)nnc1-c1ccc(C(F)(F)F)cc1O` [Example 15], the concentration for half-maximal inhibition (IC50) is 100 nM. For `Cc1nc(N[C@@H]2CCOC[C@H]2O)nnc1-c1ccc(C2CC2)cc1O` [Example 78], the 50% inhibitory concentration (IC50) was found to be 27 nM. As for `COc1ccc(-c2nnc(N[C@@H]3CCOC[C@H]3O)nc2C)c(O)c1` [Example 61], the IC50 was determined as 36 nM.

On to `Cc1nc(NCCC2(CN)CCC2)nnc1-c1ccc(C(F)(F)F)cc1O` [Example 139], for which the IC50 amounted to 690 nM.

Take `Cc1ccc(-c2nnc(N[C@@H]3CCC[C@H](O)C3)nc2C)c(O)c1` [Example 81]: the IC50 was 42 nM.

In the case of `Cc1nc(NC[C@H](O)C(F)(F)F)nnc1-c1ccc(C(F)(F)F)cc1O` [Example 68], the IC50 was 57 nM.

Regarding `CC(C)c1nc(NC[C@@H](C)O)nnc1-c1ccc(C(F)(F)F)cc1O` [Example 129], the IC50 worked out at 55 nM. As to `Cc1nc(NC(C)(C)CO)nnc1-c1ccc(C(F)(F)F)cc1O` [Example 33], the 50% inhibitory concentration (IC50) was found to be 150 nM. The same measure, in the same setting: the value for `C[C@@H](O)CNc1nnc(-c2ccc(C(F)(F)F)cc2O)c(C(F)(F)F)n1` [Example 130] was 260 nM. For the compound `Cc1nc(NC2CNCCC23CC3)nnc1-c1ccc(C(F)(F)F)cc1O` (centres unmarked) [Example 170], the IC50 turned out to be 390 nM. For the compound `Cc1nc(N[C@@H]2CCCC(F)(F)[C@H]2O)nnc1-c1ccc(C(F)(F)F)cc1O` [Example 48], the concentration for half-maximal inhibition (IC50) was determined as 34 nM. Regarding `C[C@@]1(O)CCCC[C@H]1Nc1nnc(-c2ccc(C(F)(F)F)cc2O)c(C2CC2)n1` [Example 122], the half-inhibitory concentration (IC50) stood at 15 nM. Turning to `Oc1cc(C(F)(F)F)ccc1-c1nnc(N[C@@H]2CCOC[C@H]2O)nc1C1CC1` [Example 111], the IC50 was found to be 12 nM. Regarding `Cc1nc(N[C@@H]2CCCC[C@H]2O)nnc1-c1ccc(F)cc1O` [Example 53], the concentration for half-maximal inhibition (IC50) is 63 nM. `Cc1nc(N[C@@H]2CCCC[C@@]2(C)O)nnc1-c1ccc(OC(F)(F)F)cc1O` [Example 58]: the IC50 was found to be 9.3 nM. On to `Cc1nc(N[C@@H]2CCCN(C)C2)nnc1-c1ccc(C(F)(F)F)cc1O` [Example 187, 2-(5-methyl-3-{[(3R)-1-methylpiperidin-3-yl]amino}-1,2,4-triazin-6-yl)-5-(trifluoromethyl)phenol dihydrochloride], for which the half-inhibitory concentration (IC50) amounted to 1.3 nM.

On to `Cc1nc(N[C@@H]2COC[C@H]2O)nnc1-c1ccc(C(F)(F)F)cc1O` [Example 16], for which the IC50 was determined as 88 nM. For `Cc1nc(N[C@@H]2CN(C)C[C@H]2O)nnc1-c1ccc(C(F)(F)F)cc1O` [Example 162], the IC50 was determined as 350 nM. For `Cc1nc(NC[C@@H](C)O)nnc1-c1ccc(C2CC2)cc1O` [Example 56], the 50% inhibitory concentration (IC50) turned out to be 12 nM. With `Cc1nc(NCCCO)nnc1-c1ccc(C(F)(F)F)cc1O` [Example 3], the IC50 is 69 nM.

As to `Cc1nc(N[C@@H]2CCC[C@H]2O)nnc1-c1ccc(C(F)(F)F)cc1O` [Example 5], the 50% inhibitory concentration (IC50) was 21 nM. With `Cc1ccc(-c2nnc(N[C@H]3CCNC3=O)nc2C)c(O)c1` [Example 71], the concentration for half-maximal inhibition (IC50) amounted to 8.2 nM. For the compound `C[C@@]1(O)CCCC[C@H]1Nc1nnc(-c2ccc(OC(F)(F)F)cc2O)c(C2CC2)n1` [Example 124], the half-maximal inhibitory concentration (IC50) turned out to be 37 nM. With `Cc1nc(NC2CC(C)(O)C2)nnc1-c1ccc(C(F)(F)F)cc1O` (centres unmarked) [Example 8], the concentration for half-maximal inhibition (IC50) was found to be 6.9 nM. Regarding `Cc1nc(NC2CC3(CC(O)C3)C2)nnc1-c1ccc(C(F)(F)F)cc1O` (centres unmarked) [Example 22], the concentration for half-maximal inhibition (IC50) stood at 13 nM. As to `Cc1nc(N[C@@H]2CCN(CCO)C2)nnc1-c1ccc(C(F)(F)F)cc1O` [Example 161, 2-(3-{[(3R)-1-(2-hydroxyethyl)pyrrolidin-3-yl]amino}-5-methyl-1,2,4-triazin-6-yl)-5-(trifluoromethyl)phenol], the IC50 was 70 nM. Consider `Cc1nc(N[C@@H]2CCCN(CC3CC3)C2)nnc1-c1ccc(C(F)(F)F)cc1O` [Example 178], for which the IC50 is 4.2 nM.

The same assay, now with this note: Homo sapiens, THP-1, 2 h, read-out: IC50 (nM), IL-1β production.
Regarding `Cc1nc(N[C@@H]2CCC[C@H](O)C2)nnc1-c1ccc(C(F)(F)F)cc1O` [Example 185, 2-(3-{[(1R,3S)-3-hydroxycyclohexyl]amino}-5-methyl-1,2,4-triazin-6-yl)-5-(trifluoromethyl)phenol monohydrochloride], the IC50 is 5.2 nM.

(Values after patent US12692241B2, “Substituted triazine compound” (Nico Therapeutics, Inc., priority 2021, dated 2026).)
